The test system of the test is MX-1 breast xenograft, nude mice, tumor weight T/C. In words: NCI In Vivo Anticancer Drug Screen. Data for tumor model Human Mammary Carcinoma MX-1 Xenograft (intrarenal inoculation) in NU/NU Swiss (nude) mice. The conditions noted are these: endpoint: mean tumor weight change, higher = larger tumour. The procedure:
The antitumor activity of compounds was measured in mice bearing transplantable tumors. Survival or tumor size were measured and the results are expressed as the measurement made in the treated group (T) divided by the measurement made in the vehicle treated control group (C). The tumor model used in this assay is Human Mammary Carcinoma MX-1 Xenograft (intrarenal inoculation) in NU/NU Swiss (nude) mice

[1] abbreviates: dose: 100.0 mg/kg/injection, schedule: Q01DX010 (sc), vehicle: saline.
[2] abbreviates: dose: 200.0 mg/kg/injection, schedule: Q01DX010 (sc), vehicle: saline.
[3] abbreviates: dose: 100.0 mg/kg/injection, schedule: Q01DX010 (sc), vehicle: saline with Tween-80.
[4] abbreviates: dose: 200.0 mg/kg/injection, schedule: Q01DX010 (sc), vehicle: saline with Tween-80.
Where [5] appears, read: dose: 150.0 mg/kg/injection, schedule: Q04DX003 (sc), vehicle: saline with Tween-80.
The mark [6] stands for this setting: dose: 300.0 mg/kg/injection, schedule: Q04DX003 (sc), vehicle: saline with Tween-80.
The mark [7] stands for this setting: dose: 600.0 mg/kg/injection, schedule: Q04DX003 (sc), vehicle: saline with Tween-80.
Setting [8] is: dose: 1200.0 mg/kg/injection, schedule: Q04DX003 (sc), vehicle: saline with Tween-80.

For 18 molecules, T/C results are on record in PubChem BioAssay AID296 (DTP/NCI, 2004).

“And” between values parts separate entries of the source, which are not always exact repeats. Equal values may be shown once. Results filed as inconclusive are left out.

Consider `Nc1nc(/C=C(/O)c2ccccc2)c2ncn(C3OC(CO)C(O)C3O)c2n1` (stereo unspecified), for which the T/C is, setting by setting: (dose: 200.0 mg/kg/injection, schedule: Q04DX003 (sc), vehicle: distilled water + Tween-80) 97 % of control; (dose: 400.0 mg/kg/injection, schedule: Q04DX003 (sc), vehicle: distilled water + Tween-80) 100 % of control; (dose: 800.0 mg/kg/injection, schedule: Q04DX003 (sc), vehicle: distilled water + Tween-80) 92 % of control; (dose: 1600.0 mg/kg/injection, schedule: Q04DX003 (sc), vehicle: distilled water + Tween-80) 99 % of control.
Consider `CCOC(=O)c1c[nH]c2oc(/C=N/N3CC(CN4CCOCC4)OC3=O)cc2c1=O` (stereo unspecified), for which the T/C is 116 % of control (dose: 50.0 mg/kg/injection, schedule: Q01DX010 (sc), vehicle: saline); 77 % of control under setting [1]; 98 % of control under setting [2]; 72 % of control (dose: 400.0 mg/kg/injection, schedule: Q01DX010 (sc), vehicle: saline).
With `C1CCC(NC2CCCCC2)CC1`, the T/C by setting is: (dose: 75.0 mg/kg/injection, schedule: Q04DX003 (ip), vehicle: saline) 119 % of control; (dose: 150.0 mg/kg/injection, schedule: Q04DX003 (ip), vehicle: saline) 174 % of control.
On to `O=NN(CCF)C(=O)NC1CCCCC1`, for which the T/C (dose: 3.12 mg/kg/injection, schedule: Q04DX003 (sc), vehicle: Klucel (hydroxypropylcellulose) (HPC)) is 119 % of control; the T/C (dose: 6.25 mg/kg/injection, schedule: Q04DX003 (sc), vehicle: Klucel (hydroxypropylcellulose) (HPC)) is 88 % of control; the T/C (dose: 12.5 mg/kg/injection, schedule: Q04DX003 (sc), vehicle: Klucel (hydroxypropylcellulose) (HPC)) is 91 % of control; the T/C (dose: 25.0 mg/kg/injection, schedule: Q04DX003 (sc), vehicle: Klucel (hydroxypropylcellulose) (HPC)) is 92 % of control.
With `COC1C(N)C(OC2C(Oc3cccc4c(O)c5c(=O)oc6ccc(C)c7c(=O)oc(c34)c5c67)OC(C)C(O)C2(C)O)OC(C)C1O` (stereo unspecified), the T/C was 51 % of control (dose: 2.5 mg/kg/injection, schedule: Q04DX003 (ip), vehicle: lactic acid); 49 % of control (dose: 5.0 mg/kg/injection, schedule: Q04DX003 (ip), vehicle: lactic acid); 9 % of control (dose: 10.0 mg/kg/injection, schedule: Q04DX003 (ip), vehicle: lactic acid).
With `O=C(CO)c1ccc([N+](=O)[O-])cc1`, the T/C reads like this: under setting [3], 95 % of control; under setting [4], 114 % of control; (dose: 400.0 mg/kg/injection, schedule: Q01DX010 (sc), vehicle: saline with Tween-80) 67 % of control; (dose: 800.0 mg/kg/injection, schedule: Q01DX010 (sc), vehicle: saline with Tween-80) 63 % of control.
As to `CC1CCC(NC(=O)N(CCCl)N=O)CC1` (stereo unspecified), the T/C is 74 % of control (dose: 6.25 mg/kg/injection, schedule: Q01DX010 (sc), vehicle: Klucel (hydroxypropylcellulose) (HPC)) and 78 % of control (dose: 12.5 mg/kg/injection, schedule: Q01DX010 (sc), vehicle: Klucel (hydroxypropylcellulose) (HPC)).
As to `[Cl][Mn][Cl]`, the T/C by setting is: (dose: 37.5 mg/kg/injection, schedule: Q04DX003 (sc), vehicle: saline) 115 % of control; (dose: 75.0 mg/kg/injection, schedule: Q04DX003 (sc), vehicle: saline) 109 % of control; (dose: 150.0 mg/kg/injection, schedule: Q04DX003 (sc), vehicle: saline) 104 % of control.
Regarding `O=C(O)c1cc(Cc2ccc(O)c(C(=O)O)c2)ccc1O` (tested in a mixture with another compound), the T/C (dose: 75.0 mg/kg/injection, schedule: Q04DX003 (sc), vehicle: Klucel (hydroxypropylcellulose) (HPC)) is 63 % of control; the T/C (dose: 150.0 mg/kg/injection, schedule: Q04DX003 (sc), vehicle: Klucel (hydroxypropylcellulose) (HPC)) was 55 % of control; the T/C (dose: 300.0 mg/kg/injection, schedule: Q04DX003 (sc), vehicle: Klucel (hydroxypropylcellulose) (HPC)) was 93 % of control; the T/C (dose: 600.0 mg/kg/injection, schedule: Q04DX003 (sc), vehicle: Klucel (hydroxypropylcellulose) (HPC)) was 76 % of control.
As to `O=C(O)c1cc(C(=O)O)c(C(=O)O)cc1C(=O)O.[NH2-].[NH2-].[NH2-].[NH2-].[Pt+2].[Pt+2]`, the T/C is 113 % of control (dose: 1.25 mg/kg/injection, schedule: Q04DX003 (ip), vehicle: water); 97 % of control (dose: 5.0 mg/kg/injection, schedule: Q04DX003 (ip), vehicle: water); 60 % of control and 76 % of control (dose: 10.0 mg/kg/injection, schedule: Q04DX003 (ip), vehicle: water); 66 % of control (dose: 20.0 mg/kg/injection, schedule: Q04DX003 (ip), vehicle: water); 26 % of control (dose: 40.0 mg/kg/injection, schedule: Q04DX003 (ip), vehicle: water); 15 % of control (dose: 80.0 mg/kg/injection, schedule: Q04DX003 (ip), vehicle: water).
With `CO[C@@H]1[C@H](O)CC[C@]2(CO2)[C@H]1[C@@]1(C)O[C@@H]1CC=C(C)C`, the T/C was 150 % of control under setting [5], 79 % of control under setting [6], 99 % of control under setting [7] and 96 % of control under setting [8].
Regarding `S=C=NCCc1ccccc1`, the T/C runs as follows: (dose: 25.0 mg/kg/injection, schedule: Q01DX010 (sc), vehicle: saline with Tween-80) 161 % of control; (dose: 50.0 mg/kg/injection, schedule: Q01DX010 (sc), vehicle: saline with Tween-80) 156 % of control; under setting [3], 72 % of control; under setting [4], 113 % of control.
For `Nc1nc2c(ncn2C2OC(CO)C(O)C2O)c(=O)[nH]1.Nc1nc2c(ncn2C2OC(CO)C(O)C2O)c(=O)[nH]1.[NH2-].[NH2-].[Pt+2]` (stereo unspecified), the T/C (dose: 300.0 mg/kg/injection, schedule: Q04DX003 (sc), vehicle: water) was 68 % of control; the T/C (dose: 600.0 mg/kg/injection, schedule: Q04DX003 (sc), vehicle: water) was 22 % of control; the T/C (dose: 1200.0 mg/kg/injection, schedule: Q04DX003 (sc), vehicle: water) is 3 % of control.
For the molecule `Cc1c2ccccc2cc2cccc[n+]12`, the T/C was 74 % of control (dose: 7.5 mg/kg/injection, schedule: Q04DX003 (sc), vehicle: saline); 88 % of control (dose: 15.0 mg/kg/injection, schedule: Q04DX003 (sc), vehicle: saline); 67 % of control (dose: 30.0 mg/kg/injection, schedule: Q04DX003 (sc), vehicle: saline).
`Cc1cn(C2CC3[O][Sn]([c]4ccccc4)([c]4ccccc4)[O]CC3O2)c(=O)[nH]c1=O` (stereo unspecified): the T/C reads like this: (dose: 25.0 mg/kg/injection, schedule: Q01DX010 (sc), vehicle: saline) 93 % of control; under setting [1], 93 % of control; under setting [2], 115 % of control; (dose: 600.0 mg/kg/injection, schedule: Q04DX003 (sc), vehicle: saline) 86 % of control; (dose: 1200.0 mg/kg/injection, schedule: Q04DX003 (sc), vehicle: saline) 107 % of control; (dose: 2400.0 mg/kg/injection, schedule: Q04DX003 (sc), vehicle: saline) 64 % of control.
On to `COC12[C@@H]3N[C@@H]3CN1C1=C(C(=O)C(NCCSSCCNC3=C(C)C(=O)C4=C(C3=O)C(COC(N)=O)[C@]3(OC)C5N[C@@H]5CN43)=C(C)C1=O)[C@@H]2COC(N)=O` (stereo partly specified), for which the T/C runs as follows: (dose: 3.12 mg/kg/injection, schedule: Q04DX003 (ip), vehicle: DMSO) 17 % of control; (dose: 12.5 mg/kg/injection, schedule: Q04DX003 (ip), vehicle: DMSO) 14 % of control; (dose: 25.0 mg/kg/injection, schedule: Q04DX003 (ip), vehicle: DMSO) -1 % of control.
For the molecule `CNC(=O)c1cccc2c(Nc3ccc(NS(C)(=O)=O)cc3OC)c3cccc(C)c3nc12`, the T/C runs as follows: (dose: 50.0 mg/kg/injection, schedule: Q04DX003 (sc), vehicle: water) 111 % of control; (dose: 100.0 mg/kg/injection, schedule: Q04DX003 (sc), vehicle: water) 73 % of control; (dose: 200.0 mg/kg/injection, schedule: Q04DX003 (sc), vehicle: water) 31 % of control.
For `CNC(=O)n1c(N)nc(-c2ccccc2)c1-c1ccccc1`, the T/C by setting is: under setting [5], 105 % of control; under setting [6], 62 % of control; under setting [7], 62 % of control; under setting [8], 68 % of control.
